Common to all, as to experiment: ≥ marks a high value that may be exact or a test limit, other limits are often not marked, values filed in µg/mL are converted to µM
For experiment [1], the system named is Bacillus subtilis ATCC 6633.
Experiment [2] relates to Pseudomonas aeruginosa ATCC BAA-427.
Experiment [3] has as its system Klebsiella pneumoniae ATCC 27736.
Another experiment has as its system Bacillus subtilis 168 HT.
A further experiment relates to Escherichia coli MG1655.
Experiment [4] deals with Enterococcus faecalis PCM 2673.
For experiment [5], the system named is Candida albicans ATCC 10231.
For experiment [6], the system named is Pseudomonas aeruginosa ATCC 9027.
The test system of experiment [7] is Escherichia coli ATCC 25922.
The test system of experiment [8] is Staphylococcus aureus ATCC 25923.
Experiment [9] concerns Micrococcus luteus ATCC 49732.
The subject of experiment [10] is Escherichia coli ATCC 11775.
Experiment [11] deals with Staphylococcus aureus ATCC 12600.
In experiment [12] the test system is Staphylococcus aureus ATCC BAA-1556.
Experiment [13] concerns Escherichia coli K12 MG1655.
In experiment [14] the test system is Candida albicans ATCC 14053.

≈ marks a conversion by molar mass, not a printed value. Bounds are passed on as bounds.

Drawing on DBAASP, this text covers MIC for twelve compounds.

The MIC is the smallest concentration in the dilution series that meets the test's criterion for growth inhibition. High values mean a need for much substance, low ones inhibition by little substance.

Regarding `CC[C@H](C)[C@H](NC(=O)[C@H](Cc1cnc[nH]1)NC(=O)[C@H](Cc1cnc[nH]1)NC(=O)[C@H](Cc1ccccc1)NC(=O)[C@@H](N)Cc1ccccc1)C(=O)N[C@@H](Cc1ccccc1)C(=O)N[C@@H](CCCN=C(N)N)C(=O)NCC(=O)N[C@H](C(=O)N[C@H](C(=O)N[C@@H](Cc1cnc[nH]1)C(=O)N[C@H](C(=O)NCC(=O)N[C@@H](CCCCN)C(=O)N[C@H](C(=O)N[C@H](C(=O)N[C@@H](Cc1cnc[nH]1)C(=O)N[C@@H](CCCN=C(N)N)C(=O)N[C@@H](CC(C)C)C(=O)N[C@H](C(=O)N[C@H](C(=O)NCC(N)=O)[C@@H](C)O)C(C)C)[C@@H](C)CC)[C@@H](C)O)C(C)C)C(C)C)C(C)C` [FFHHIFRGVVHVGKTIHRLVTG], the results for the minimum inhibitory concentration (MIC) in [1], in [2] and in experiment [3] were 8 µM (≈ 20.5 µg/mL), 12 µM (≈ 30.7 µg/mL) and 6 µM (≈ 15.3 µg/mL), respectively.

`CC[C@H](C)[C@H](NC(=O)[C@H](CCCN=C(N)N)NC(=O)[C@H](CCSC)NC(=O)[C@@H](NC(=O)[C@H](CCCN=C(N)N)NC(=O)[C@@H](N)Cc1ccccc1)[C@@H](C)CC)C(=O)N[C@@H](CC(C)C)C(=O)N[C@@H](CCCN=C(N)N)C(=O)N[C@H](C(=O)N[C@@H](CC(C)C)C(=O)N[C@@H](CCCCN)C(=O)N[C@@H](CC(C)C)C(=O)O)C(C)C` [FRIMRILRVLKL]: the MIC with Bacillus subtilis 168 HT and in the experiment with Escherichia coli MG1655 was 10.3 µM (≈ 16 µg/mL) in each case.

As for `CC[C@H](C)[C@H](NC(=O)[C@H](CCCCN)NC(=O)[C@H](CCCCN)NC(=O)[C@H](C)NC(=O)[C@@H](NC(=O)[C@H](CC(=O)O)NC(=O)[C@H](Cc1ccccc1)NC(=O)[C@H](CC(C)C)NC(=O)CN)[C@@H](C)CC)C(=O)N[C@@H](C)C(=O)N[C@@H](CCC(=O)O)C(=O)N[C@@H](CO)C(=O)N[C@@H](Cc1ccccc1)C(N)=O` [GLFDIAKKIAESF], the MIC in experiment [4] was not below 178 µM; in [5], 178 µM (≈ 256 µg/mL); in [6], more than 356 µM; in [7] it was 356 µM (≈ 512 µg/mL); in experiment [8], more than 356 µM.

As for `CC[C@H](C)[C@H](NC(=O)[C@H](CCCCN)NC(=O)[C@H](CCCCN)NC(=O)[C@@H](NC(=O)[C@@H](NC(=O)[C@H](CC(=O)O)NC(=O)[C@H](Cc1ccccc1)NC(=O)[C@H](CC(C)C)NC(=O)CN)[C@@H](C)CC)[C@@H](C)CC)C(=O)N[C@@H](C)C(=O)N[C@@H](CCC(=O)O)C(=O)N[C@@H](CO)C(=O)N[C@@H](C)C(N)=O` [GLFDIIKKIAESA], the minimum inhibitory concentration (MIC) is not below 91.1 µM in [4]; 365 µM (≈ 512 µg/mL) in experiment [5]; more than 365 µM in experiment [6]; 91.1 µM (≈ 128 µg/mL) in [7]; more than 365 µM in experiment [8].

For `CC[C@H](C)[C@H](NC(=O)[C@H](C)NC(=O)[C@H](C)NC(=O)[C@H](CCC(=O)O)NC(=O)[C@H](CCCCN)NC(=O)CNC(=O)[C@@H](NC(=O)[C@H](CC(N)=O)NC(=O)[C@H](CCCCN)NC(=O)[C@@H](NC(=O)[C@@H](NC(=O)[C@H](CO)NC(=O)[C@H](Cc1c[nH]c2ccccc12)NC(=O)[C@H](CC(C)C)NC(=O)CN)[C@@H](C)O)[C@@H](C)CC)C(C)C)C(=O)N[C@@H](C)C(=O)N[C@@H](C)C(=O)NCC(=O)N[C@@H](CCCCN)C(=O)N[C@@H](C)C(=O)N[C@H](C(=O)N[C@@H](CC(C)C)C(=O)NCC(=O)N[C@@H](CO)C(=O)N[C@@H](CC(C)C)C(N)=O)C(C)C` [GLWSTIKNVGKEAAIAAGKAVLGSL], the values for the minimum inhibitory concentration (MIC) in experiment [9], in experiment [10] and in experiment [11] were 2 µM (≈ 4.91 µg/mL), 0.5 µM (≈ 1.23 µg/mL) and 0.5 µM (≈ 1.23 µg/mL), respectively.

The compound `CC[C@H](C)[C@H](NC(=O)[C@H](Cc1c[nH]c2ccccc12)NC(=O)[C@H](CCCN=C(N)N)NC(=O)[C@H](CCCN=C(N)N)NC(=O)[C@H](Cc1c[nH]c2ccccc12)NC(=O)[C@@H](N)CCCCN)C(=O)N[C@@H](CC(C)C)C(=O)N[C@@H](Cc1c[nH]c2ccccc12)C(=O)N[C@@H](CC(C)C)C(N)=O` [KWRRWILWL] displayed an MIC in [12] of 12.5 µM (≈ 16.9 µg/mL).

Take `CC[C@H](C)[C@H](NC(=O)[C@H](Cc1c[nH]c2ccccc12)NC(=O)[C@H](CCCN=C(N)N)NC(=O)[C@H](CCCN=C(N)N)NC(=O)[C@H](Cc1c[nH]c2ccccc12)NC(=O)[C@@H](N)CCCCN)C(=O)N[C@@H](CCCN=C(N)N)C(=O)N[C@@H](C)C(=O)N[C@@H](CC(C)C)C(N)=O` [KWRRWIRAL]: the minimal inhibitory concentration (MIC) in [12] stood at 25 µM (≈ 32.1 µg/mL).

As to `CC[C@H](C)[C@H](NC(=O)[C@H](CCC(N)=O)NC(=O)[C@@H](NC(=O)[C@@H](N)CC(C)C)C(C)C)C(=O)NCC(=O)N[C@H](C(=O)N[C@@H](CCCCN)C(=O)N[C@H](C(=O)N[C@H](C(=O)NCC(=O)N[C@H](C(=O)NCC(=O)N[C@@H](CCCN=C(N)N)C(=O)N[C@@H](CC(N)=O)C(=O)N[C@@H](Cc1ccc(O)cc1)C(=O)N[C@@H](C)C(=O)N[C@@H](C)C(=O)N[C@@H](Cc1cnc[nH]1)C(=O)O)C(C)C)C(C)C)[C@@H](C)CC)[C@@H](C)O` [LVQIGTKIVGVGRNYAAH], the MIC (in experiment [13]; against Bacillus subtilis 168 HT) was not below 33.8 µM each time.

Turning to `CC[C@H](C)[C@H](NC(=O)[C@H](Cc1c[nH]c2ccccc12)NC(=O)[C@H](CCCN=C(N)N)NC(=O)[C@H](CCCN=C(N)N)NC(=O)[C@H](Cc1c[nH]c2ccccc12)NC(=O)[C@@H](N)CC(C)C)C(=O)N[C@@H](CCCN=C(N)N)C(=O)N[C@@H](Cc1c[nH]c2ccccc12)C(=O)N[C@@H](CC(C)C)C(N)=O` [LWRRWIRWL], the MIC in experiment [12] was determined as 12.5 µM (≈ 17.3 µg/mL).

`CC(C)[C@H](NC(=O)[C@H](C)NC(=O)[C@@H](NC(=O)[C@H](C)NC(=O)[C@@H]1CCCN1)[C@@H](C)O)C(=O)N[C@@H](Cc1ccccc1)C(=O)N[C@@H](CCCCN)C(=O)O` [PATAVFK]: the minimal inhibitory concentration (MIC) in experiment [9] is not below 910 µM; in [10], not below 101 µM; in experiment [11], not below 303 µM; in experiment [14], not below 303 µM.

For `CC(C)[C@H](NC(=O)[C@H](C)NC(=O)[C@@H](NC(=O)CNC(=O)[C@@H]1CCCN1)[C@@H](C)O)C(=O)N[C@@H](C)C(=O)N[C@@H](CCCCN)C(=O)O` [PGTAVAK], the MIC in [9], in experiment [10], in experiment [11] and in experiment [14] was not below 97 µM each time.

Regarding `CC[C@H](C)[C@H](NC(=O)[C@H](CCCCN)NC(=O)[C@@H](N)Cc1c[nH]c2ccccc12)C(=O)N[C@@H](Cc1ccccc1)C(=O)N[C@@H](CCCCN)C(=O)N[C@@H](CC(C)C)C(=O)N[C@@H](CCCCN)C(=O)N[C@@H](CC(C)C)C(=O)N[C@@H](CCCN=C(N)N)C(=O)N[C@@H](CCSC)C(=O)N[C@@H](CC(C)C)C(=O)N[C@@H](Cc1c[nH]c2ccccc12)C(=O)O` [WKIFKLKLRMLW], the minimum inhibitory concentration (MIC) is not below 38.5 µM with Bacillus subtilis 168 HT and not below 77 µM against Escherichia coli MG1655.
